Active and inactive are the calls of the source. The rule behind the calls is not given here.
Columns and labels:
[1] = target: T1, Deubiquitinase and deneddylase Dub1 (Chlamydia trachomatis serovar L2 (strain ATCC VR-902B / DSM 19102 /434/Bu), UniProt B0B9A0); experiment: Inhibition of recombinant Chlamydia trachomatis DUB1 (130 to 401 residues) using Ub-Rh110Gly as fluorogenic substrate incubated for 60 mins by enzymatic analysis; settings: read-out: IC50
T1 sequence (B0B9A0 whole entry): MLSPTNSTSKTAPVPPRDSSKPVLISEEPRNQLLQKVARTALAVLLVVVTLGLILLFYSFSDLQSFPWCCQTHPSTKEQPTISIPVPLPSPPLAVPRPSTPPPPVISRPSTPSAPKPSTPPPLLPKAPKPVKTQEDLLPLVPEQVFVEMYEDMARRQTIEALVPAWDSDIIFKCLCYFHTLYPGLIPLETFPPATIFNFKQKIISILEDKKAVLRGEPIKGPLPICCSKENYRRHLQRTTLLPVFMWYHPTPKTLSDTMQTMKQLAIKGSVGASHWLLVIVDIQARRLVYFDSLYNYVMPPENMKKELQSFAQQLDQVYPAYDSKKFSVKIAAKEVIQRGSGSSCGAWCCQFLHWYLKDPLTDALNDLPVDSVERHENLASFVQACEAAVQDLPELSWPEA

[2] = target: T2, Deubiquitinase and deneddylase Dub1 (Chlamydia trachomatis serovar L2 (strain ATCC VR-902B / DSM 19102 /434/Bu)) (UniProt B0B9A0); experiment: Inhibition of recombinant Chlamydia trachomatis DUB1 (130 to 401 residues) using Ub-Rh110Gly as fluorogenic substrate at 100 to 500 uM incubated for 20 to 240 mins by enzymatic analysis relative to control; settings: dose 100-500 µM, time 20-240 min
T2 sequence (whole entry): T1 sequence (B0B9A0 whole entry)

[3] = target: T3, Ubiquitin carboxyl-terminal hydrolase 28 (Homo sapiens) (UniProt Q96RU2); experiment: Inhibition of human USP28 at 35 uM relative to control
T3 sequence (whole entry): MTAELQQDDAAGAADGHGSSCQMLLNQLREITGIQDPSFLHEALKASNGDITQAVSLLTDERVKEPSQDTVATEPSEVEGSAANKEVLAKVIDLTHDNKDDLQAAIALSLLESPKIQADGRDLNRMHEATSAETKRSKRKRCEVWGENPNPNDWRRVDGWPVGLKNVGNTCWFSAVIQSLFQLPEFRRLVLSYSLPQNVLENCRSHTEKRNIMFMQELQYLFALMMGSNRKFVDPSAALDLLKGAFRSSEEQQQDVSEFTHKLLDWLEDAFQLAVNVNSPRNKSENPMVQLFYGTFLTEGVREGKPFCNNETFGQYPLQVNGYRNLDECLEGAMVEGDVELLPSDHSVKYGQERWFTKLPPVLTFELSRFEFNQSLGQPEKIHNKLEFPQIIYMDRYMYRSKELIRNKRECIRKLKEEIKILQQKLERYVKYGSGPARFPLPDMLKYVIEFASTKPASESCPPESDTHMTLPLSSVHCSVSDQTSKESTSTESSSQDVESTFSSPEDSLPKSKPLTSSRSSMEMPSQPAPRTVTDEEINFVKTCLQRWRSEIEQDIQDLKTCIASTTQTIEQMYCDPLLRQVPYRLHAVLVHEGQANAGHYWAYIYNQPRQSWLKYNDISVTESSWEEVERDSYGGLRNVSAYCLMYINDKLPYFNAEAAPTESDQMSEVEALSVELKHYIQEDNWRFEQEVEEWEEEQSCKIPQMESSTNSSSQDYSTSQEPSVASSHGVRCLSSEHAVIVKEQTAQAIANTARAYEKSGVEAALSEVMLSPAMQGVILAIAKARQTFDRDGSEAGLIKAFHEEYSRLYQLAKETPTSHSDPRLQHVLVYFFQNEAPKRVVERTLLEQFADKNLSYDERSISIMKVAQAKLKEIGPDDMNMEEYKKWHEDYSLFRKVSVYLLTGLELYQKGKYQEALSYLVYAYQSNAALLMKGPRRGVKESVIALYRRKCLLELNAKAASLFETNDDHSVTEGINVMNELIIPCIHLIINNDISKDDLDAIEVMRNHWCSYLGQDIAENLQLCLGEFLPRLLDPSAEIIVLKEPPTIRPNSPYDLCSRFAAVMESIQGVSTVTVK

[4] = target: T4, Ubiquitin carboxyl-terminal hydrolase isozyme L3 (Homo sapiens) (UniProt P15374); experiment: Inhibition of human UCHL3 at 35 uM relative to control
T4 sequence (whole entry): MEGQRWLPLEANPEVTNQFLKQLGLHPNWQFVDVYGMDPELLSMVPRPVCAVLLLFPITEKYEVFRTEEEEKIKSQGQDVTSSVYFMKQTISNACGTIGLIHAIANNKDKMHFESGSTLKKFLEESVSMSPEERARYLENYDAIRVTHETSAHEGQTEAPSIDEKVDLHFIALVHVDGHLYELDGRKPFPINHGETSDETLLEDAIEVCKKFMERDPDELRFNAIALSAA

[5] = target: T5, Deubiquitinase and deneddylase Dub2 (Chlamydia trachomatis) (UniProt O84875); experiment: Inhibition of Chlamydia trachomatis DUB2 incubated for 60 mins relative to control
T5 sequence (whole entry): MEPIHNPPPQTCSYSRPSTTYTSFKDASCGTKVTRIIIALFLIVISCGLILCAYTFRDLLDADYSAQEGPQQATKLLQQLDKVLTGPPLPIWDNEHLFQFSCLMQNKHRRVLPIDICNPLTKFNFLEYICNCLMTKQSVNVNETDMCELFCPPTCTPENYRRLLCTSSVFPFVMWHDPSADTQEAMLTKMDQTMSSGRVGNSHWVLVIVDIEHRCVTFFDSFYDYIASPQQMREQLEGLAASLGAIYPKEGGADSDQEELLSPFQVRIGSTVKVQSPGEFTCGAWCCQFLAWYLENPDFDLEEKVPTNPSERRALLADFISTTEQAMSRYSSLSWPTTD

HEp-2 = experiment: Cytotoxicity against human HEp-2 cells assessed as reduction in cell viability at 4 to 256 ug/mL measured after 20 hrs by XTT assay; assay type: toxicity, cell-based; settings: hep-2, 20 h, dose 4-256 µg/ml
HeLa = experiment: Cytotoxicity against human HeLa cells assessed as cell viability at 4 to 256 ug/mL measured after 20 hrs by XTT assay; assay type: toxicity, cell-based; settings: dose 4-256 µg/ml
[6] = Cytotoxicity against HDFa cells assessed as cell viability at 128 ug/mL measured after 20 hrs by XTT assay relative to control; assay type: toxicity, cell-based; settings: human, at 128 µg/mL, read-out: Activity
Escherichia coli = experiment: Antimicrobial activity against Escherichia coli K12 upto 256 microg/ml incubated for 20 hrs by resazurin staining based microtiter plate reader analysis; assay type: functional, organism-based; settings: dose <= 256.0 µg/ml

With N#Cc1nccc(C(=O)NCc2nn(C(=O)Cc3ccccc3)c3ccccc23)n1 the IC50 [1] was 970 nM, the inhibition [2] was “Active; Partial Inhibition Observed” and the inhibition [3] was under 25%. The inhibition [4] was under 25%, the inhibition [5] was 100% and the Activity (HEp-2) was “Non-toxic”. For the same compound, the Activity (HeLa) was “Non-toxic”, the viability at 20 h, 128 ug/mL [6] was 67% and the Activity (Escherichia coli) was “inactive”.

— ChEMBL document CHEMBL6103628, “Structural Optimization of Covalent Inhibitors for Deubiquitinase ChlaDUB1 of Chlamydia trachomatis as Antibiotic Agents” (J Med Chem, 2025)
